Experimental findings from paper PMC5065625, “Structure-mechanism-based engineering of chemical regulators targeting distinct pathological factors in Alzheimer's disease” (Nature Communications, 2016) are described below.

Series [1] can be described thus: Parallel artificial membrane permeability assay adapted for BBB (PAMPA-BBB). The series is classed as in vitro ADME. Particulars: 25 μM, pH 7.4, 4 h. On the procedure: PAMPA-BBB experiments were conducted using the PAMPA Explorer kit (pION Inc., Billerica, MA, USA) using previously reported protocols. Compounds (25 μM, 200 μl) in pH 7.4 Prisma HT buffer (pION) were added to the wells of a donor plate (number of replicates=12). The polyvinylidene fluoride (PVDF, […]) filter membrane on the acceptor plate was coated with BBB-1 lipid formulation (5 μl, pION). The acceptor plate was placed on top of the donor plate. Brain sink buffer (BSB, 200 μl, pION) was added to each well of the acceptor plate and was incubated for 4 h at ambient temperature without stirring. UV–vis spectra of the solutions in the reference, acceptor, and donor plates were measured using a microplate reader. The PAMPA Explorer software v. 3.5 (pION) was used to calculate the −logPe values for compounds. CNS±designations were assigned by comparison with compounds that were identified in previous reports.
(In PAMPA a lipid-coated filter parts donor from acceptor wells.)

The test system of series [2] is Aβ40/Aβ42 toxicity in M17 cells. The series is described as follows: Cell viability (MTT assay), compounds with Aβ and metal–Aβ. The series is classed as cell-based, human. The conditions noted are these: compound 20 μM, Aβ40/Aβ42 20 μM, CuCl2 or ZnCl2 20 μM, 24 h. As to the method: (§1) The M17 cell line was purchased from the American Type Culture Collection (ATCC, Manassas, VA, USA). The cell line was maintained in media containing 50% minimum essential medium and 50% F12 (GIBCO, Grand Island, NY, USA), supplemented with 10% fetal bovine serum (Sigma), 100 U ml^−1 penicillin, and […] streptomycin (GIBCO). The cells were grown and maintained at 37 °C in a humidified atmosphere with 5% CO2. […] Cell viability upon treatment of compounds was determined using the MTT assay (Sigma). M17 cells were seeded in a 96-well plate (15,000 cells in 100 μl per well). The cells were treated with Aβ (20 μM) with or without CuCl2 or ZnCl2 (20 μM), followed by the addition of compounds (20 μM, 1% v/v final DMSO concentration), and incubated for 24 h. After incubation, 25 μl MTT (5 mg ml^−1 in phosphate buffered saline (PBS, pH 7.4, GIBCO) was added to each well and the plate was incubated for 4 h at 37 °C. Formazan produced by the cells was solubilized using an acidic solution of N,N-dimethylformamide (DMF, 50%, v/v aq) and SDS (20%, w/v) overnight at room temperature in the dark. The absorbance was measured at 600 nm using a microplate reader. Cell viability was calculated relative to cells containing an equivalent amount of DMSO.

For series [3], the system named is human neuroblastoma SK-N-BE(2)-M17 (M17) cells. Nature of the series: Cell viability (MTT assay), compounds with and without metal ions. Particulars: with and without Cu(II) and Zn(II), up to 20 μM. The series is classed as cell-based. As to the method: as §1
(Tetrazolium dyes change colour on reduction, which living cells bring about.)

A short description of series [4]: Solubility. The series is classed as physicochemical.
Series [5] in a line: UV–vis variable-pH titration of Cu(II)–2 (binding affinity). As to the method:
The pKa value for 2 was determined by UV–vis variable-pH titrations as previously reported. To establish the pKa value, a solution (10 mM NaOH, pH 12, 100 mM NaCl) of 2 (100 μM) was titrated with small amounts of HCl. At least 30 spectra were recorded in the range of pH 2–10. Similarly, a solution containing CuCl2 and 2 (50 μM) in a metal to ligand ratio of 1:2 was titrated with small additions of HCl and at least 30 spectra were recorded over the range pH 2–7. The acidity and stability constants were calculated by using the HypSpec program (Protonic Software, UK)[56]. Speciation diagrams were modelled in the HySS2009 program (Protonic Software)[57].

For the compound `CN(C)c1ccc(NCc2ccc3ccccc3n2)cc1` [compound 3, N^1,N^1-dimethyl-N^4-(quinolin-2-ylmethyl)benzene-1,4-diamine], the “−logPe” value in series [1] was 4.2(2).
As for `Nc1ccc(NCc2ccccn2)cc1` [compound 1, N^1-(pyridin-2-ylmethyl)benzene-1,4-diamine], the “−logPe” value in series [1] is reported as 5.0(1). Further, the “Toxicity induced by metal–Aβ” value in series [2] is “diminished”. Moreover, in series [3], the “Toxicity in M17 cells” value is given as “nontoxic”.
For `CN(C)c1ccc(NCc2ccc[nH]2)cc1` [compound 4, N^1-((1H-pyrrol-2-yl)methyl)-N^4,N^4-dimethylbenzene-1,4-diamine], the “−logPe” value in series [1] was 4.9(0). Besides, the “Solubility in the 2-deoxyribose assay buffer” value in series [4] (phosphate buffer pH 7.2) was “poor solubility under the assay conditions”.
For the compound `COc1cc(NCc2ccccn2)cc(OC)c1` [compound 2, 3,5-dimethoxy-N-(pyridin-2-ylmethyl)aniline], the “−logPe” value in series [1] is 4.2(8). Besides, the “Toxicity induced by metal–Aβ” value in series [2] is recorded as “diminished”. Besides, the “Toxicity in M17 cells” value in series [3] is “nontoxic”. In series [5] (Cu(II):L = 1:2, [2] = 50 μM), the “logβ (Cu + L = CuL)” value is recorded as 5.6(8). Besides, the “Approximate dissociation constant for Cu(II), 1:1 complex” value in series [5] (UV–vis variable-pH titrations) is “micromolar range”. Also, the “pCu (=−log[Cu(II)]free)” value in series [5] (pH 6.6) was 6.24. Further, the “Water solubility relative to 1” value in series [4] was “much lower degrees of water solubility”.
